Row | Structure (SMILES) | melting point [°C]
1 | O=C(Nc1ccccc1N1CCc2ccccc21)c1ccncc1 | 120 to 121
2 | C=CCNC(=O)[C@H]1NCSC1(C)C | 45 to 47
3 | COc1cc(OC)nc(C2(C#N)OC(=O)c3c(Cl)cccc32)n1 (stereo not drawn) | 159 to 161
4 | c1cnc2c(OCCn3ccc4ccc5c(c43)CCNCC5)cccc2c1 | 129 to 132
5 | O=C1C=C(NC(=O)C(=O)c2cn(Cc3ccc(Cl)cc3)c3ccc(Cl)cc23)CO1 | 251 to 253
6 | Oc1nc2cc(F)c(F)cc2nc1O | > 310
7 | [N-]=[N+]=NCC1CN(c2ccc(SC(c3ccccc3)(c3ccccc3)c3ccccc3)c(F)c2)C(=O)O1 (stereo not drawn) | 77 to 79
8 | COc1cc(OC)c(NC(=S)Nc2ccccc2)cc1O | 152 to 154
9 | CCOC(=O)c1oc(-c2ccc(Cl)cc2)cc(=O)c1Br | 146 to 149
10 | Cc1nc(N2C(=O)CN(c3ccc(F)cc3)C2=O)sc1C(=O)NCc1ccccc1 | 217 to 219
11 | Cc1oc2ccccc2c1OC(C)(C)C(N)=O | 116 to 120
12 | CC1Cc2ccc(Br)cc2C(c2ccc(N)cc2)=NN1C(N)=O (stereo not drawn) | 218 to 221
13 | CCOc1c(C(N)=O)n(-c2ccccc2)c2ccc(OC)cc12 | 143 to 144
14 | CCOC(=O)C(C)Oc1ccc(N(C)c2nc3ccc(Br)cc3o2)cc1 (stereo not drawn) | 91 to 92
15 | O=c1[nH]c(-c2[nH]c3ccccc3c2Cl)no1 | 240 to 241
16 | O=C(Cc1cccc2ccccc12)Nc1cc([C@H]2C[C@@H](NC(=O)c3cccc(C(F)(F)F)c3)C2)[nH]n1 | 143
17 | Clc1ccc(C2(CBr)OCC(c3ccc(Cl)cc3Cl)O2)cc1 (stereo not drawn) | 82.7
18 | CC(C)CCOc1ccc([N+](=O)[O-])cc1OCCC(C)C | 44 to 47
19 | Cc1ccc(C(=O)c2c(Cl)cc(Cl)cc2Cl)cc1C(C)c1ccc(=O)[nH]n1 (stereo not drawn) | 221 to 222
20 | COc1ccc(N2C(=O)[C@H](O)[C@@H]2CC(C)C)cc1 | 160 to 163
21 | CC(=O)NC1(c2ccc(CCl)cc2)CC1 | 124 to 127
22 | C=CCC1(CC=C)c2cc(N(c3ccccc3)c3ccccc3)ccc2-c2ccc(N(c3ccccc3)c3ccccc3)cc21 | 179 to 183
23 | Cc1ccc(Nc2nc(-c3cc(-c4ccccc4)no3)cs2)nc1 | 224 to 227

Row | Structure (SMILES) | melting point [°C]
24 | CN1C(=O)C(C(=O)Nc2cccc(F)c2)S(=O)(=O)c2ccccc21 (stereo not drawn) | 206 to 208
25 | COC(=O)C(C)(C)C(Cc1ccc(OC)cc1)N(C)S(=O)(=O)c1ccc(C)cc1 (stereo not drawn) | 132 to 134
26 | Cc1cc2nc(Cl)c3cnccc3n2n1 | 170
27 | COc1ccccc1Cc1n[nH]c2c1c(=O)n(-c1cccc(OC(F)(F)F)c1)c1ncccc21 | 243 to 245
28 | CCC1(C)CC2(NC(=O)N(c3ccccc3)C2=O)C(C)C(C)(CC)N1 (stereo not drawn) | 150 to 153
29 | Nc1cc(-c2ccccc2)n(-c2ccc(S(N)(=O)=O)cc2)n1 | 286 to 290
30 | O=CC1=Cc2cc(OCCCc3ccccc3)ccc2OC1 | 71 to 73
31 | NS(=O)(=O)c1ccc2[nH]cc(CCN3C(=O)c4ccccc4C3=O)c2c1 | 285 to 290
32 | Cc1ccc(N(c2ccc(C)cc2)c2ccc(C(O)(CCCO)CCCO)cc2)cc1 | 131 to 132
33 | COc1cc(C(=O)NC(C)(C)C)ccc1S(=O)(=O)Cl | 145 to 149
34 | OCCNC(=S)NC(Cc1cccc2ccccc12)=Nc1ccccc1 | 155 to 156
35 | C#Cc1ccc(-c2[nH]c(=O)c3cc(OC)ccc3c2[N+](=O)[O-])cc1 | 246 to 248
36 | COc1cccc(C2OCC(C)(C)C2(O)C(C)(C)C)c1 (stereo not drawn) | 83 to 83.5
37 | Nc1ccc(C#Cc2c(F)c(F)nc(F)c2F)cc1 | 164 to 165
38 | COc1cc(C)c(C=CC=CC=C(C)C(=O)O)c(C)c1C | 179 to 180
39 | c1ccc(CCc2cc3cccnc3[nH]2)cc1 | 157 to 158
40 | Nc1nccc(-c2c[nH]c3nccc(-c4ccccc4)c23)n1 | > 210
41 | CC(=O)Nc1ccc(F)c(-c2ccncc2)n1 | 254 to 256
42 | Cc1ccc(N2C(=O)C(O)=C(C(=O)c3ccc(OC(F)(F)F)cc3)C2c2ccc(Cn3ccnn3)cc2)nn1 (stereo not drawn) | 275
43 | O=C(NC12CC3CC(CC1C3)C2)c1ccccc1C(c1ccc(O)cc1)c1ccc(O)cc1 | 219 to 224
44 | COc1ccc2nc(SC3CCCc4ccc(O)nc43)[nH]c2c1 (stereo not drawn) | 217 to 218
45 | Cc1ncccc1Cn1nnnc1-c1ccc(Cl)c(Cl)c1 | 176 to 178
46 | Cn1c(-c2ccccc2)cc(O)c(C(=N)c2ccccc2)c1=O | 238 to 240

Row | Structure (SMILES) | melting point [°C]
47 | O=C1NC(=O)c2c1c(-c1ccccc1Cl)cc1c2c2cc(O)ccc2n1CC(O)CO (stereo not drawn) | 305 to 309
48 | COc1ccc(N2CCN(c3c(C)c(C)c4c(c3C)CC(C)(Cn3ccnc3C)O4)CC2)cc1 (stereo not drawn) | 86 to 90
49 | O=c1ccc2ccc3ccc(Br)cc3c(=O)c2[nH]1 | 268 to 269
50 | CCOC(=O)c1ncn2c1CN=C(c1ccccc1F)c1cc([N+](=O)[O-])ccc1-2 | 228 to 231
51 | CCc1nn(-c2ccc(F)cc2)c2cc(C(=O)O)ccc12 | 204 to 205
52 | O=C(O)c1ncn2c1CN=C(c1ccccc1Br)c1cc(F)ccc1-2 | 280 to 285
53 | CC(C)Cc1c(C(=O)OC(C)(C)C)c(C(F)F)nc(C(F)(F)F)c1C(=O)OC(C)(C)C | 48 to 50
54 | CN1CCC(OC2c3cccc(-c4ccc(F)cc4)c3CCn3cc(-c4ccccc4)nc32)CC1 (stereo not drawn) | 95
55 | Nc1cccc(C=Cc2ccc3ccccc3n2)c1 | 158 to 160
56 | CC1(C)Oc2ccsc2C(NC(=O)c2ccc(C#N)cc2)C1O (stereo not drawn) | 177 to 178
57 | O=c1[nH]c2cc(Cl)ccc2n1CCCBr | 162
58 | CCOP(=O)(/C=C/c1cn(-c2ccccc2)nc1OCc1ccc(OCc2nc(-c3ccco3)oc2C)c(OC)c1)OCC | 60 to 63
59 | COc1cc2ncc(C#N)c(Nc3cc(Cl)ccc3O)c2cc1OC | > 250
60 | FC(F)(F)c1cccc(CCc2nnc(-c3ccnc4[nH]ccc34)o2)c1 | 176 to 177
61 | CCCN(CC(=O)Nc1c(OC)nc(C)nc1OC)c1ccccc1 | 173 to 174
62 | COc1c(Cl)ccc(-c2cc(N)c(Cl)c(C(=O)NOCc3cnc(Cl)s3)n2)c1F | 164 to 167
63 | CSc1nn2c(N3CCN(C)CC3)cc(CN3CCOCC3)nc2c1S(=O)(=O)c1ccccc1 | 199 to 201
64 | O=C(CCc1ccc(NC(=O)c2ccccc2)cc1)NO | 189 to 191
65 | COc1ccc(Sc2oc3ccc(Cl)cc3c2C)nn1 | 131 to 134
66 | COc1nc2cc(Cl)cc(CCCO)c2nc1OC | 104 to 105
67 | CC1(C)CCC(C)(C)c2nc3c(nc21)CCc1c(-c2ccc(C(=O)O)cc2)nn(Cc2cccnc2)c1-3 | 250 to 252

The remaining lines, values ahead:

Row | melting point [°C] | Structure (SMILES)
68 | 127 | CCCCNc1nc2cnnc(Cl)c2cc1C(=O)OCC
69 | 245 to 248 | CCn1cc(C(=O)O)c(=O)c2cc(F)c(C)c(F)c21
70 | 83.5 to 86.5 | CCOC(Oc1cc(Cl)cc(Cl)c1)C(=O)O (stereo not drawn)
71 | 114 to 116 | COc1ccc(N(CCCC(=O)O)C(=O)c2ccc(Cl)cc2)cc1-c1ccccc1
72 | 158 to 160 | CCCCc1nc(Cl)c(CNC(=O)c2cc3c(OCC(O)CN(C(=O)OC(C)(C)C)C(C)C)cccc3[nH]2)n1Cc1ccc(-c2ccccc2C(=O)OC)cc1 (stereo not drawn)
73 | 169 to 172 | COc1c(N2CC3CCCC3(N)C2)c(F)cc2c(=O)c(C(=O)O)cn(C3CC3F)c12 (stereo not drawn)
74 | 110 to 112 | Cc1c2n(c(=O)c3c(O)cccc13)CCCS2
75 | 124 to 130 | CCOCC1COc2cc(C(=O)O)c(N)cc2O1 (stereo not drawn)
76 | 82 | CC(=O)SCC(=Cc1cc(F)cc(F)c1)C(=O)NCCC(=O)OCc1ccccc1
77 | 56 to 59 | O=C(Nc1ccc2c(c1)CCC2)OCc1ccccc1
78 | 122 to 124 | O=C(c1cccs1)c1cccc2c1CCC2C(=O)O (stereo not drawn)
79 | 162 to 164 | CC(=O)Nc1c(C(N)=O)n[nH]c1C(C)C
80 | 120 to 122 | COc1ccc(COC/C(=C/c2ccc(C(=O)O)cc2)Cn2ccnc2)cc1
81 | 255 to 257 | CCN(CC)C(=O)c1c(C(=O)NN=Cc2ccc(Cl)cc2)[nH]c2ccccc12
82 | 115 to 117 | CCOC(=O)c1c(C(F)(F)F)nc(C(F)(F)F)c(C(=O)O)c1OCC
83 | 110 to 112 | CCOC(=O)C1=C(C)NC(C=NOC)=C(C(=O)OCC)C1c1ccccc1Cl (stereo not drawn)

Row | melting point [°C] | Structure (SMILES)
84 | 93 to 95 | CCCCCCCCCCCCCCCCCCOc1cc(OCc2ccccc2)cc(C(=O)N(CC(=O)O)CC(=O)O)c1
85 | 138 | CCCCc1ccc(N(Cc2ccc(N(C)C)cc2)C(=O)C2CCCc3c(O)cccc32)cc1 (stereo not drawn)
86 | 174 to 176 | CCCCCCOc1ccc(NC(=O)Nc2ccccc2CCc2cc(C(C)(C)C)c(O)c(C(C)(C)C)c2)cc1
87 | 130 to 131 | CC=CC=CCOC(=O)C1=C(C)NC(C)=C(C(=O)OC)C1c1cccc(C(F)(F)F)c1 (stereo not drawn)
88 | 148 to 150 | Cc1cccc(C(=O)NO)c1N(C)S(=O)(=O)c1ccc(OCCCNC(=O)c2cc3ccccc3o2)cc1
89 | 126 to 131 | N=C(N)NCCCCCOc1cccc2c1NC(=O)C(CC(=O)O)C2 (stereo not drawn)
90 | > 300 | O=C(CCN1CCN(Cc2ccccc2)CC1)c1ccc2[nH]c(=O)oc2c1
91 | 170 to 171 | CCOC(=O)c1sc(SC(C)C)c2c1CCC(NC(C)=O)C2=O (stereo not drawn)
92 | 180 to 186 | CCCCCCCP(=O)(O)O[C@@H](CCCCN)C(=O)N1CCC[C@H]1C(=O)O
93 | 155 | CCOC(=O)Nc1cccc2c1CN(C)CC2c1ccc(Cl)cc1 (stereo not drawn)
94 | 166 to 168 | CC1(C)CCCC2(C)CC12/C=C/C(=O)N1CCN(C(N)=O)CC1 (stereo not drawn)
95 | 130 to 132 | CC(C)Oc1cccc(CC(=O)OCc2c(-c3ccccc3)c3cc(Cl)ccc3c(=O)n2C)c1
96 | 168 | CCCCc1ccccc1OCCCOc1cccc2c(=O)cc(C(=O)O)oc12
97 | 137 to 138 | CC(=O)C(=Cc1ccc2c(c1)OCO2)C(=O)OCc1ccccc1
98 | 187 to 189 | COC1C(OC(=O)c2ccccc2)C(COC(=O)c2ccccc2)OC1n1cc([N+](=O)[O-])c(=O)[nH]c1=O (stereo not drawn)

From a melting point compilation (Tetko et al.; mined from patent text by program, amines drawn as free bases though some values may be those of a salt)
